Data reported in patent US12358983B2, “Combination of anti CD19 antibody with a BCL-2 inhibitor and uses thereof” (Incyte Corporation, priority 2016, dated 2025).

Tested on: MEC-1 cells
Test: Cytotoxicity (ADCC assay with NK effector cells) of MOR00208 and venetoclax alone and in combination in MEC-1 cells
Assay type: cell-based
From the text: Cell lines tested: MEC-1 cells (DSMZ# ACC497). Culture conditions of cell lines used are according to supplier's information. Cell Medium: lscove's Modified Dulbecco's Medium (IMDM), Invitrogen, Cat No.: 31980; RPMI1640, Invitrogen, Cat No.: 31870; GlutaMAX, Invitrogen, CAT No.: 35050; FCS: Sigma CAT No.: F7524 LOT No.: 111M3396. NKs: RPMI1640, with GlutaMAX, Invitrogen, Cat No.: 31870, 10% FCS; Biocoll: Biochrome AG CAT No.: L6115 LOT No.: 0034D; MACS NK cell isolation kit: Miltenyi Biotec CAT No.: 130-092-657 LOT No.: 5150402327; venetoclax: Selleck Chem. CAT No.: S8048 LOT No.: S804803; FCS: Sigma CAT No.: F7524 LOT No.: 111M3396; and RefmAb33 (anti-RSV) with same Fc region as MOR00208.
The cytotoxic potential of MOR00208 and venetoclax alone and in combination were tested in the MEC-1 cell line (CLL). Target cell killing is measured using the following parameters: venetoclax mono treatment at concentrations of 3 μM, 6.5 μM, and 10 μM; MOR00208 mono treatment at concentrations of 0.01 pM, 0.1 pM, 1 pM, 10 pM, 100 pM and 10 nM, and the combination treatment of the listed venetoclax and MOR00208 concentrations. The following are used as controls: RefnnAb33, NK cells alone, MEC-1 cells alone or DMSO. In the venetoclax mono groups as well as in the MOR00208+venetoclax combination groups, target cells were pretreated with venetoclax or with DMSO control for 24 hours followed by removal of the dead cells prior to the ADCC assay. A dead cell removal kit was used to remove cells killed by the cytotoxic effect of venetoclax. The dead cell removal kit was implemented to mimick the removal of dead cells that also occurs in vivo and to prevent false negative interference of the dead cells with the subsequent ADCC assay. For the ADCC assay, target cells are counted and stained using CFSE at a final concentration of 1 μg/mL. For the control group, i.e. DMSO treated target cells, the effector: target (E:T) cell ratio was adjusted to 2:1, i.e. 1×10E6/nnL effector cells (NK cells) and 5×10E5/mL target cells (MEC-1 cells). […] The ADCC assays were performed as follows: using 96 well plates, 100 μL of MEC-1 target cell suspension was added per well, followed by 100 μL NK effector cell suspension per well. Mixed cell suspensions were centrifuged and resuspended in 100 μL antibody containing medium or the according control solution. The antibodies were diluted in a range of 10 nM-0.01 pM (corresponds to 1.5 μg/mL-1.5 pg/mL) in medium. The ADCC assays were incubated for 2 hours in a CO2-incubator at 37° C. After 10 minutes incubation on ice, 50 μL DAPI solution was added to each well (final concentration 1 μg/mL) and incubated for additional 10 minutes on ice. The ADCC measurements were performed on a BD FACSVerse instrument. Dead target cells were identified as DAPI positive cells.
Combination Index (CI) calculations are completed in order to determine synergy of the combination of the exemplified anti-CD19 antibody and venetoclax as compared to MOR00208 and venetoclax alone. Such calculations are described in Ting-Chao Chou, Theoretical Basis, Experimental Design, and Computerized Simulation of Synergism and Antagonism in Drug Combination Studies, Pharmacol Rev 58:621-681 (2006), which is incorporated by reference in its entirety and Chou TC, Talalay P, Quantitative analysis of dose-effect relationships: the combined effects of multiple drugs or enzyme inhibitors. Adv Enzyme Regul 22: 27-55 (1984), which is incorporated by reference in its entirety. The methods of Chou-Talalay are carried out using the CI-isobol method.
The median-effect equation models the effect of an inhibitor (such as a drug) as Fa/Fu=(D/D50)^m, where D is the dose, Fa and Fu is the fraction of the system affected and unaffected by the dose D (Fa+Fu=1); D50 is the dose producing the median effect (e.g. IC50, ED50, LD50). The constant m determines the shape of the dose-effect curve.

With “MOR00208: anti-CD19 antibody; heavy chain SEQ ID NO: 14, light chain SEQ ID NO: 15” the “Theoretical MOR00208 Dose” value (Exp 2, same effect as MOR00208 1.50E−02 μg/mL + venetoclax 6.5 μM) was “* 1.00E+03^ μg/mL”, the “Theoretical MOR00208 Dose” value (Exp 2, same effect as MOR00208 1.50E−02 μg/mL + venetoclax 10.0 μM) was “* 1.00E+03^ μg/mL” and the “Theoretical MOR00208 Dose” value (Exp 2, same effect as MOR00208 1.50E−03 μg/mL + venetoclax 3.0 μM) was 0.00188 µg/mL. For the same substance, the “Theoretical MOR00208 Dose” value (Exp 2, same effect as MOR00208 1.50E−03 μg/mL + venetoclax 6.5 μM) was 0.01 µg/mL, the “Theoretical MOR00208 Dose” value (Exp 2, same effect as MOR00208 1.50E−03 μg/mL + venetoclax 10.0 μM) was “* 1.00E+03^ μg/mL” and the “Theoretical MOR00208 Dose” value (Exp 2, same effect as MOR00208 1.50E−04 μg/mL + venetoclax 3.0 μM) was 0.000155 µg/mL. The “Theoretical MOR00208 Dose” value (Exp 2, same effect as MOR00208 1.50E−04 μg/mL + venetoclax 6.5 μM) was 0.000591 µg/mL, the “Theoretical MOR00208 Dose” value (Exp 2, same effect as MOR00208 1.50E−04 μg/mL + venetoclax 10.0 μM) was 0.00289 µg/mL and the “Theoretical MOR00208 Dose” value (Exp 2, same effect as MOR00208 1.50E−05 μg/mL + venetoclax 3.0 μM) was 1.94e-05 µg/mL. For the same substance, the “Theoretical MOR00208 Dose” value (Exp 2, same effect as MOR00208 1.50E−05 μg/mL + venetoclax 6.5 μM) was 0.000109 µg/mL, the “Theoretical MOR00208 Dose” value (Exp 2, same effect as MOR00208 1.50E−05 μg/mL + venetoclax 10.0 μM) was 0.000725 µg/mL and the “Theoretical MOR00208 Dose” value (Exp 2, same effect as MOR00208 1.50E−06 μg/mL + venetoclax 6.5 μM) was 2.9e-05 µg/mL. For the same substance, the “Theoretical MOR00208 Dose” value (Exp 2, same effect as MOR00208 1.50E−06 μg/mL + venetoclax 10.0 μM) was 0.000145 µg/mL, the “Actual MOR00208 Effect” value (Exp 3, MOR00208 1.50E+00 μg/mL) was 74.8 % dead cells and the “Actual MOR00208 Effect” value (Exp 3, MOR00208 1.50E−02 μg/mL) was 69.1 % dead cells. For the same substance, the “Actual MOR00208 Effect” value (Exp 3, MOR00208 1.50E−03 μg/mL) was 45.3 % dead cells, the “Actual MOR00208 Effect” value (Exp 3, MOR00208 1.50E−04 μg/mL) was 26.6 % dead cells and the “Actual MOR00208 Effect” value (Exp 3, MOR00208 1.50E−05 μg/mL) was 18.9 % dead cells. The “Actual MOR00208 Effect” value (Exp 3, MOR00208 1.50E−06 μg/mL) was 11.8 % dead cells, the “Theoretical MOR00208 Dose” value (Exp 3, same effect as MOR00208 1.50E+00 μg/mL + venetoclax 3.0 μM) was “* 1.00E+03^ μg/mL” and the “Theoretical MOR00208 Dose” value (Exp 3, same effect as MOR00208 1.50E+00 μg/mL + venetoclax 6.5 μM) was “* 1.00E+03^ μg/mL”. The “Theoretical MOR00208 Dose” value (Exp 3, same effect as MOR00208 1.50E+00 μg/mL + venetoclax 10.0 μM) was “* 1.00E+03^ μg/mL”, the “Theoretical MOR00208 Dose” value (Exp 3, same effect as MOR00208 1.50E−02 μg/mL + venetoclax 3.0 μM) was 0.279 µg/mL and the “Theoretical MOR00208 Dose” value (Exp 3, same effect as MOR00208 1.50E−02 μg/mL + venetoclax 6.5 μM) was “* 1.00E+03^ μg/mL”. The “Theoretical MOR00208 Dose” value (Exp 3, same effect as MOR00208 1.50E−02 μg/mL + venetoclax 10.0 μM) was “* 1.00E+03^ μg/mL”, the “Theoretical MOR00208 Dose” value (Exp 3, same effect as MOR00208 1.50E−03 μg/mL + venetoclax 3.0 μM) was 0.00152 µg/mL and the “Theoretical MOR00208 Dose” value (Exp 3, same effect as MOR00208 1.50E−03 μg/mL + venetoclax 6.5 μM) was 0.00652 µg/mL. The “Theoretical MOR00208 Dose” value (Exp 3, same effect as MOR00208 1.50E−03 μg/mL + venetoclax 10.0 μM) was “* 1.00E+03^ μg/mL”, the “Theoretical MOR00208 Dose” value (Exp 3, same effect as MOR00208 1.50E−04 μg/mL + venetoclax 3.0 μM) was 0.000218 µg/mL and the “Theoretical MOR00208 Dose” value (Exp 3, same effect as MOR00208 1.50E−04 μg/mL + venetoclax 6.5 μM) was 0.000602 µg/mL. For the same substance, the “Theoretical MOR00208 Dose” value (Exp 3, same effect as MOR00208 1.50E−04 μg/mL + venetoclax 10.0 μM) was 0.0042 µg/mL, the “Theoretical MOR00208 Dose” value (Exp 3, same effect as MOR00208 1.50E−05 μg/mL + venetoclax 3.0 μM) was 2.9e-05 µg/mL and the “Theoretical MOR00208 Dose” value (Exp 3, same effect as MOR00208 1.50E−05 μg/mL + venetoclax 6.5 μM) was 0.000157 µg/mL. For the same substance, the “Theoretical MOR00208 Dose” value (Exp 3, same effect as MOR00208 1.50E−05 μg/mL + venetoclax 10.0 μM) was 0.000983 µg/mL, the “Theoretical MOR00208 Dose” value (Exp 3, same effect as MOR00208 1.50E−06 μg/mL + venetoclax 6.5 μM) was 2.67e-05 µg/mL and the “Theoretical MOR00208 Dose” value (Exp 3, same effect as MOR00208 1.50E−06 μg/mL + venetoclax 10.0 μM) was 0.000371 µg/mL. The “Effect in ADCC cell killing assays (in words)” value (very low doses of MOR00208) was “little or no effect”.
